Assay results reported in ChEMBL document CHEMBL5335870, “Discovery of Hepatitis B Virus Surface Antigen Suppressor GS-8873” (ACS Med Chem Lett, 2024).
Values belong to the compound of their own block, whether it stands above or below them. The source made the active and inactive calls. No cut-off for these calls is given here.

How the values were obtained:
[1] = Lipophilicity, logD of the compound; assay type: physicochemical; details: octanol/water
Hepatitis B virus = assay: Antiviral activity against genotype D HBV infected in sodium taurocholate co-transporting polypeptide receptor-expressing stable HepG2 cell line assessed as suppression of HBsAg level incubated for 5 days by multiplex chemiluminescent MSD assay; assay type: functional, organism-based; details: HepG2, 120 h
[2] = Oral bioavailability in Sprague-Dawley rat after 24 hrs by LC/MS/MS method; assay type: ADME, organism-based; details: in vivo
[3] = Clearance in Sprague-Dawley rat at […], iv measured after 24 hrs by LC/MS/MS method; assay type: ADME, organism-based; details: in vivo
[4] = In vivo clearance in rat; assay type: ADME, organism-based
[5] = Hepatic extraction in cynomolgus monkey; assay type: ADME, Macaca fascicularis; details: read-out: ERH
[6] = Hepatic extraction in dog; assay type: ADME, Canis lupus familiaris; details: read-out: ERH
[7] = Hepatic extraction in rat; assay type: ADME; details: read-out: ERH
[8] = Oral bioavailability in rat at 5 mg/kg; assay type: ADME, organism-based; details: in vivo
[9] = Oral bioavailability in cynomolgus monkey at 5 mg/kg; assay type: ADME, organism-based, Macaca fascicularis; details: in vivo
[10] = In vivo clearance in dog; assay type: ADME, organism-based, Canis lupus familiaris
[11] = In vivo clearance in cynomolgus monkey; assay type: ADME, organism-based, Macaca fascicularis
Primary hepatocyte [12] = assay: Effect on cccDNA level in HBV infected primary human hepatocyte at 0.25 uM media replaced for every 2 to 3 days incubated for 12 days by Southern blot analysis; assay type: functional, cell-based; details: Hepatitis B virus, time 12.0 day
[13] = Oral bioavailability in dog at 5 mg/kg; assay type: ADME, organism-based, Canis lupus familiaris; details: in vivo
Primary hepatocyte [14] = assay: Effect on cccDNA level in HBV infected primary human hepatocyte at 0.5 uM media replaced for every 2 to 3 days incubated for 12 days by Southern blot analysis; assay type: functional, cell-based; details: Hepatitis B virus, time 12.0 day

SMILES: COCCCOc1cc2c(cc1OC)-c1cc(=O)c(C(=O)O)cn1C(C1(C)CC1)C2 (stereo not given)
logD [1]: 2.2

SMILES: COCCCOc1cc2c(cc1Cl)-c1cc(=O)c(C(=O)O)cn1N(C(C)(C)C)[C@H]2C
EC50 (Hepatitis B virus): 97 nM

SMILES: COCCCOc1cc2c(cc1Cl)-c1cc(=O)c(C(=O)O)cn1N(C(C)(C)C)[C@@H]2C
EC50 (Hepatitis B virus): 390 nM

SMILES: COCCCOc1cc2c(cc1C1COC1)-c1cc(=O)c(C(=O)O)cn1N1[C@@H]2CCC1(C)C
EC50 (Hepatitis B virus): 13 nM

SMILES: CC(C)(C)N1Cc2cc(C#CC3CC3)c(Cl)cc2-c2cc(=O)c(C(=O)O)cn21
EC50 (Hepatitis B virus): 16 nM

SMILES: COCCCOc1cc2c(cc1Cl)-c1cc(=O)c(C(=O)O)cn1[C@H](C(C)(C)C)C2
clearance [4]: 5 mL/min/kg
hepatic extraction ratio [5]: 0.11
hepatic extraction ratio [6]: 0.2
hepatic extraction ratio [7]: 0.071
bioavailability [8]: 41%
logD [1]: 2.5
bioavailability [9]: 120%
EC50 (Hepatitis B virus): 150 nM
clearance [10]: 6 mL/min/kg
clearance [11]: 2.83 mL/min/kg

SMILES: COCCCOc1cc2c(cc1Cl)-c1cc(=O)c(C(=O)O)cn1N1CCC[C@H]21
EC50 (Hepatitis B virus): 55 nM

SMILES: COCCCOc1cc2c(cc1Cl)-c1cc(=O)c(C(=O)O)cn1[C@H](C1(C)CC1)C2
Activity (Primary hepatocyte [12]): inactive
logD [1]: 2.4
EC50 (Hepatitis B virus): 3.8 nM

SMILES: COCCCOc1cc2c(cc1Cl)-c1cc(=O)c(C(=O)O)cn1N1[C@H]2CCC1(C)C
EC50 (Hepatitis B virus): 420 nM

SMILES: COCCCOc1cc2c(cc1OCCCOC)[C@H]1CCC(C)(C)N1n1cc(C(=O)O)c(=O)cc1-2
EC50 (Hepatitis B virus): 11 nM

SMILES: CC(C)(C)N1Cc2cc(OCC3CC(F)(F)C3)c(Cl)cc2-c2cc(=O)c(C(=O)O)cn21
bioavailability [2]: 56%
EC50 (Hepatitis B virus): 12 nM
clearance [3]: 4.17 mL/min/kg

SMILES: COCCCOc1cc2c(cc1S(C)(=O)=O)-c1cc(=O)c(C(=O)O)cn1N1[C@@H]2CCC1(C)C
EC50 (Hepatitis B virus): 52 nM

SMILES: COCCCOc1cc2c(cc1Cl)-c1cc(=O)c(C(=O)O)cn1N1CCC(C)(C)[C@H]21
EC50 (Hepatitis B virus): 12 nM

SMILES: COCCCOc1cc2c(cc1Cl)-c1cc(=O)c(C(=O)O)cn1N1CC(C)(C)C[C@H]21
EC50 (Hepatitis B virus): 41 nM

SMILES: COCCCNc1cc2c(cc1Cl)-c1cc(=O)c(C(=O)O)cn1N(C(C)(C)C)C2
EC50 (Hepatitis B virus): 18 nM

SMILES: COCCCOc1cc2c(cc1OC)-c1cc(=O)c(C(=O)O)cn1[C@H](C(C)C)C2
clearance [4]: 18.3 mL/min/kg
hepatic extraction ratio [5]: 0.43
hepatic extraction ratio [6]: 0.37
hepatic extraction ratio [7]: 0.26
bioavailability [8]: 56%
logD [1]: 2.1
bioavailability [9]: 84%
EC50 (Hepatitis B virus): 15 nM
clearance [10]: 11.2 mL/min/kg
bioavailability [13]: 90%
clearance [11]: 11.3 mL/min/kg

SMILES: C[C@H](Cn1cnc2c(N)ncnc21)OCP(=O)(O)O
Activity (Primary hepatocyte [14]): inactive

SMILES: COCCCOc1cc2c(cc1OC(C)(C)C)-c1cc(=O)c(C(=O)O)cn1N1[C@@H]2CCC1(C)C
EC50 (Hepatitis B virus): 78 nM

SMILES: COCCCOc1cc2c(cc1Cl)-c1cc(=O)c(C(=O)O)cn1N1[C@@H]2CCC12COC2
EC50 (Hepatitis B virus): 72 nM

SMILES: COCCCOc1cc2c(cc1Cl)-c1cc(=O)c(C(=O)O)cn1N1[C@@H]2CCC12CC2
EC50 (Hepatitis B virus): 1 nM

SMILES: COCCOCc1cc2c(cc1Cl)-c1cc(=O)c(C(=O)O)cn1N(C(C)(C)C)C2
EC50 (Hepatitis B virus): 210 nM

SMILES: CN(C)CCCOc1cc2c(cc1Cl)-c1cc(=O)c(C(=O)O)cn1N(C(C)(C)C)C2
EC50 (Hepatitis B virus): 620 nM

SMILES: CC(C)(C)N1Cc2cc(-c3ccccn3)c(Cl)cc2-c2cc(=O)c(C(=O)O)cn21
EC50 (Hepatitis B virus): 47 nM

SMILES: COCCCOc1cc2c(cc1Cl)-c1cc(=O)c(C(=O)O)cn1N1[C@H](C)CC[C@H]21
EC50 (Hepatitis B virus): 11 nM

Second part, the compound after the results:

EC50 (Hepatitis B virus): 4 nM
SMILES: COCCCOc1cc2c(cc1Cl)-c1cc(=O)c(C(=O)O)cn1N1[C@@H]2CC1(C)C

bioavailability [2]: 60%
EC50 (Hepatitis B virus): 0.97 nM
clearance [3]: 9 mL/min/kg
SMILES: COCCCOc1cc2c(cc1OC(F)F)-c1cc(=O)c(C(=O)O)cn1N1[C@@H]2CCC1(C)C

EC50 (Hepatitis B virus): 1 nM
SMILES: CC(C)(C)N1Cc2cc(N3CCCC3)c(Cl)cc2-c2cc(=O)c(C(=O)O)cn21

EC50 (Hepatitis B virus): 5.4 nM
SMILES: COCCCOc1cc2c(cc1Cl)-c1cc(=O)c(C(=O)O)cn1N1[C@@H]2CC[C@@H]1C

EC50 (Hepatitis B virus): 0.45 nM
SMILES: CCc1cc2c(cc1OCCCOC)[C@H]1CCC(C)(C)N1n1cc(C(=O)O)c(=O)cc1-2

bioavailability [2]: 95%
EC50 (Hepatitis B virus): 6.4 nM
clearance [3]: 16.2 mL/min/kg
SMILES: COCCCOc1cc2c(cc1OC(C)C)-c1cc(=O)c(C(=O)O)cn1N1[C@@H]2CCC1(C)C

bioavailability [2]: > 100%
EC50 (Hepatitis B virus): 7.5 nM
clearance [3]: 20 mL/min/kg
SMILES: CCOc1cc2c(cc1OCCCOC)[C@H]1CCC(C)(C)N1n1cc(C(=O)O)c(=O)cc1-2

EC50 (Hepatitis B virus): 1.5 nM
SMILES: CC(C)(C)N1Cc2cc(C#Cc3ccc(N4CC5CCC(C4)O5)nc3)c(Cl)cc2-c2cc(=O)c(C(=O)O)cn21

bioavailability [2]: 91%
EC50 (Hepatitis B virus): 7.6 nM
clearance [3]: 20 mL/min/kg
SMILES: CC(C)(C)N1Cc2cc(OCC3COC3)c(Cl)cc2-c2cc(=O)c(C(=O)O)cn21

EC50 (Hepatitis B virus): 2 nM
SMILES: COCCCOc1cc2c(cc1Cl)-c1cc(=O)c(C(=O)O)cn1N1[C@@H]2CCCC1(C)C

bioavailability [2]: 58%
EC50 (Hepatitis B virus): 5.8 nM
clearance [3]: 13.8 mL/min/kg
SMILES: COCCCOc1cc2c(cc1OCC(F)F)-c1cc(=O)c(C(=O)O)cn1N1[C@@H]2CCC1(C)C

EC50 (Hepatitis B virus): 0.78 nM
clearance [3]: 16.7 mL/min/kg
SMILES: COCCCOc1cc2c(cc1C1CC1)-c1cc(=O)c(C(=O)O)cn1N1[C@@H]2CCC1(C)C

EC50 (Hepatitis B virus): 3.9 nM
clearance [3]: 25 mL/min/kg
SMILES: CC(C)(C)N1Cc2cc(OCCCOc3cnn(C(F)F)c3)c(Cl)cc2-c2cc(=O)c(C(=O)O)cn21

bioavailability [2]: 47%
EC50 (Hepatitis B virus): 1.1 nM
clearance [3]: 8 mL/min/kg
SMILES: COCCCOc1cc2c(cc1OC(F)(F)F)-c1cc(=O)c(C(=O)O)cn1N1[C@@H]2CCC1(C)C

bioavailability [2]: 66%
EC50 (Hepatitis B virus): 1.7 nM
clearance [3]: 4.5 mL/min/kg
SMILES: COCCCOc1cc2c(cc1Cl)-c1cc(=O)c(C(=O)O)cn1N1[C@@H]2CCC1(C)C

bioavailability [2]: 84%
EC50 (Hepatitis B virus): 2.1 nM
clearance [3]: 16.7 mL/min/kg
SMILES: COCCCOc1cc2c(cc1OC)-c1cc(=O)c(C(=O)O)cn1N1[C@@H]2CCC1(C)C

bioavailability [2]: 30%
EC50 (Hepatitis B virus): 2.1 nM
clearance [3]: 15 mL/min/kg
SMILES: CC(C)(C)N1Cc2cc(C#Cc3cnc(N4CC5CCC(C4)N5C4COC4)nc3)c(Cl)cc2-c2cc(=O)c(C(=O)O)cn21

EC50 (Hepatitis B virus): 2.9 nM
SMILES: COCCCOc1cc2c(cc1Cl)-c1cc(=O)c(C(=O)O)cn1N1[C@@H]2COCC1(C)C
